The values below come from US5814622A, “Compounds derived from boronic acid” (Adir et Compagnie, priority 1996, dated 1998).

The test system of data set [1] is human plasma (activated cephalin time). As to the kind of experiment: Anticoagulant activity: activated cephalin time (ACT) in human plasma. It is filed as biochemical. The conditions noted are these: 37° C., 2 min preincubation. The protocol:
(§1) Anticoagulant activity, measurement of the thrombin time and the activated cephalin time in man In order to evaluate the anticoagulant activity of the compounds of the invention, the thrombin time (TT) and the activated cephalin time (ACT) were determined in samples of human plasma. An ST4 coagulometer (Diagnostica Stago, France) was used. […] The TT is determined with the Thrombin Prest reagent and the ACT with the Automat […] reagent. The inhibitor or the solvent (10 μl) is added to the plasma (90 μl), then the mixture is incubated for 2 minutes at 37° C. 100 μl of Thrombin […]) or of Automat […]) are added while starting the chronometer. […] The activity of an antagonist is evaluated by its capacity to prolong the TT and the ACT relative to the control.

Data set [2] addresses plasminogen tissue activator (t-PA) (Homo sapiens, UniProt P00750). As to the kind of experiment: Inhibition of plasminogen tissue activator (t-PA). It is filed as biochemical. Particulars: t-PA 2 nM, substrate H-D-Ile-Pro-Arg-pNA 0.48 mM, 20° C., pH 7.4.
For data set [3], the system named is plasma from the dogs (ACT). As to the kind of experiment: ACT in dogs after oral administration. It is filed as in vivo. Particulars: dog, 5 mg/kg.
Protocol: (§2) Male or female dogs weighing 11-28 kg are treated orally with the products of the invention (5 mg/kg) or with the reference substance, DUP 714, at a concentration of 2.5 mg/kg. The coagulation times (TT, ACT) are determined in samples of plasma from the dogs 10 min before and 30 min, 1 hour, 2 hours, 4 hours and 6 hours after administration of the products. […] The number of platelets is also determined in each sample using a T450 counter (Coultronics).
(§3) The values show the number of times that the initial time is increased.
For a further data set, the system named is platelets. As to the kind of experiment: Thrombopenic activity after oral administration to dogs. It is filed as in vivo. Particulars: dog, 5 mg/kg, 1 hour.
Another data set concerns the target T1, human thrombin (Homo sapiens, UniProt P00734).
T1 construct: human thrombin (Sigma, specific activity 3230 UNIH/mg); purchased Sigma
In words: Inhibition of human thrombin (fibrinogen to fibrin). Particulars: human thrombin 0.7 nM, purified human fibrinogen, 20° C., pH 7.4. Format: biochemical.

In the next data set the target is T2, human urokinase (u-PA) (Homo sapiens, UniProt P00749).
T2 construct: purchased Sigma
As to the kind of experiment: Inhibition of urokinase (u-PA). The conditions noted are these: purified human u-PA 2 nM, substrate <Glu-Gly-Arg-pNA 0.56 mM, 20° C., pH 7.4. It is filed as biochemical.

The target in the next data set is T3, Plasmin (Homo sapiens, UniProt P00747).
T3 construct: Products Thrombin Plasmin t-PA u-PA; purchased Stage [sic]
T3 sequence (P00747 581-810 limits assumed): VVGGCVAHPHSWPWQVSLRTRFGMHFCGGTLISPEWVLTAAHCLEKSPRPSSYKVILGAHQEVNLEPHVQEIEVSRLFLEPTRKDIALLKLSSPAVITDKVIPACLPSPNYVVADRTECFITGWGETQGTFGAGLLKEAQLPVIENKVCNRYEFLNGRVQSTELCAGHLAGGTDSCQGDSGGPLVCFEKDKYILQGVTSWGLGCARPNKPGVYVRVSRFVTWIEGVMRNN
T3 sequence (P00747 97-580 partner limits assumed): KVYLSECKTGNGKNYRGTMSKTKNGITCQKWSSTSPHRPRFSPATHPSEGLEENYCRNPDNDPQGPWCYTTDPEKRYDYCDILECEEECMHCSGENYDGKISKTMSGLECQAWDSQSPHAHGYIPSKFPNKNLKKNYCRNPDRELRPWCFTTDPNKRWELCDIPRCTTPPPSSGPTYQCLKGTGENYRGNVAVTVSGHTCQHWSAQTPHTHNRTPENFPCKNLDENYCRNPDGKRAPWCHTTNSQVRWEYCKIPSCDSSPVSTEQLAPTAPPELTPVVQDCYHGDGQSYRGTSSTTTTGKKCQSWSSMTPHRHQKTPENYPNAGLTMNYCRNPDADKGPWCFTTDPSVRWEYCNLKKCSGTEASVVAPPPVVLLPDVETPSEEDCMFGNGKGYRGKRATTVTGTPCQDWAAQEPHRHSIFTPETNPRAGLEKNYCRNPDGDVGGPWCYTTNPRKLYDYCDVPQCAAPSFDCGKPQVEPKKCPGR
In words: Inhibition of plasmin. Format: biochemical. The conditions noted are these: purified human plasmin 2 nM, substrate <Glu-Phe-Lys-pNA 0.05 mM, 20° C., pH 7.4.

The subject of data set [4] is human plasma (thrombin time). As to the kind of experiment: Anticoagulant activity: thrombin time (TT) in human plasma. Format: biochemical. Particulars: 37° C., 2 min preincubation. The method, then: as §1
Data set [5] has as its system plasma from the dogs (TT). In words: TT in dogs after oral administration. It is filed as in vivo. Particulars: dog, 5 mg/kg.
Protocol: as §2, §3

Sequence of plasminogen tissue activator (t-PA) (P00750 23-562 limits assumed): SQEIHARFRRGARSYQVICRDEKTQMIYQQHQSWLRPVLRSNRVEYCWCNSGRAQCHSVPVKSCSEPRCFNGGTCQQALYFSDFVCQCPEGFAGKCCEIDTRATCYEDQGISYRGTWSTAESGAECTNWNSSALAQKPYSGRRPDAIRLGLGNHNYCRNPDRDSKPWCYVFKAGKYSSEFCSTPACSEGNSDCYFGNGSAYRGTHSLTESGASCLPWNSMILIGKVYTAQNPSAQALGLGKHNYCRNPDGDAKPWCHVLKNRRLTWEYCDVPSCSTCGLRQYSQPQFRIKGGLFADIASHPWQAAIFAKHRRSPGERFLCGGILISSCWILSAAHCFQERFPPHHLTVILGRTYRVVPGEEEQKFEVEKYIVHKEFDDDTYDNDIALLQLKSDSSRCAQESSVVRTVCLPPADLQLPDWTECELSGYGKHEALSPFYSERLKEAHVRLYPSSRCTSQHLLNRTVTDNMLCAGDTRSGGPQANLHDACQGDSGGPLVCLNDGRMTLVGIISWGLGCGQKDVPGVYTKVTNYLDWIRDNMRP
Protocol for platelets: Male or female dogs weighing 11-28 kg are treated orally with the products of the invention (5 mg/kg) or with the reference substance, DUP 714, at a concentration of 2.5 mg/kg. […] The number of platelets is also determined in each sample using a T450 counter (Coultronics).
Under the conditions of our experiments, the number of platelets before the treatment is about 300,000 platelets/μl; the TT is about 19 seconds and the ACT is about 18 seconds.

As to `COc1ccc(CCNC(=O)C2(C(=O)N[C@@H](CCCNC(=N)N)B(O)O)CCCC2)cc1OC` [Ex. 103, 1-(R)-[1-(3,4-Dimethoxyphenethylaminocarbonyl)cyclopentanecarboxamido]-4-guanidinoboronic acid benzensulfonate], in data set [1], the “ACT Ctt2 (concentration which multiplies the coagulation time by 2)” value (“ACT Ctt2” for short) was determined as 1.67 µM. Further, the IC50 in data set [2] is 1.44 µM; against human thrombin it was 0.004 µM; against human urokinase (u-PA), 1.02 µM; at Plasmin it was 3.28 µM. For the same compound, the “Increase in ACT (number of times that the initial time is increased), 1 hour” value (shortened to “Increase in ACT … 1 hour”) in [3] was 6 times. In data set [3], the “Increase in ACT (number of times that the initial time is increased), 4 hours” value (“Increase in ACT … 4 hours” for short) amounted to 4 times. For the same compound, the “Thrombopenias observed 1 hour after oral administration to dogs” value (“Thrombopenias observed 1 hour” for short) with platelets is reported as 0%. In [4], the “TT Ctt2 (concentration which multiplies the coagulation time by 2)” value (shortened to “TT Ctt2”) came out at 0.29 µM. The “Increase in TT (number of times that the initial time is increased), 1 hour” value (shortened to “Increase in TT … 1 hour”) in [5] is given as over 30 times. For the same compound, the “Increase in TT (number of times that the initial time is increased), 4 hours” value (“Increase in TT … 4 hours” below) in data set [5] was 24 times.
As for `Cl.N=C(N)NCCC[C@H](NC(=O)c1cccc(C23CCC(O)(CC2)CC3)c1)B(O)O` [Ex. 69, 1-(R)-[3-(4-Hydroxybicyclo[2.2.2]oct-1yl)benzoylamino]-4-guanidinobutylboronic acid hydrochloride], the “ACT Ctt2” value in data set [1] was 0.56 µM. For the same compound, the IC50 in data set [2] is 0.709 µM; against human thrombin it was 0.0065 µM; on human urokinase (u-PA), over 33 µM; on Plasmin, 0.692 µM. Moreover, the “Increase in ACT … 1 hour” value in data set [3] worked out at 4 times. In data set [3], the “Increase in ACT … 4 hours” value turned out to be 3 times. Besides, the “Thrombopenias observed 1 hour” value in the data set with platelets is recorded as 0%. For the same compound, the “TT Ctt2” value in data set [4] was 0.17 µM. In addition, the “Increase in TT … 1 hour” value in data set [5] came out at 18 times. The “Increase in TT … 4 hours” value in [5] stood at 15 times.
Regarding `COC12CCC(c3ccc(C(=O)N[C@@H](CCCNC(=N)N)B(O)O)cc3)(CC1)CC2.Cl` [Ex. 3, 1-(R)-[4-(4-Methoxybicyclo[2.2.2]oct-1-yl)benzoylamino]-4-guanidinobutylboronic acid hydrochloride], the “ACT Ctt2” value in data set [1] amounted to 1.25 µM. Also, the concentration for half-maximal inhibition (IC50) was 0.81 µM in data set [2], 0.0093 µM on human thrombin, over 33 µM on human urokinase (u-PA) and 1.96 µM against Plasmin. Also, in data set [3], the “Increase in ACT … 1 hour” value was found to be 19 times. In addition, the “Increase in ACT … 4 hours” value in [3] was determined as 14 times. Also, the “Thrombopenias observed 1 hour” value in the data set with platelets came out at 0%. In [4], the “TT Ctt2” value came out at 0.32 µM. Further, in data set [5], the “Increase in TT … 1 hour” value is 16 times. In addition, the “Increase in TT … 4 hours” value in data set [5] is listed as 12 times.
As to `COC12CCC(c3cccc(C(=O)N[C@@H](CCCNC(=N)N)B(O)O)c3)(CC1)CC2.Cl` [Ex. 51, 1-(R)-[3-(4-Methoxybicyclo[2.2.2]oct-1-yl)benzoylamino]-4-guanidinobutylboronic acid hydrochloride], in data set [1], the “ACT Ctt2” value stood at 0.84 µM. In addition, the IC50 amounted to 1.54 µM in data set [2], 0.0027 µM on human thrombin, 5.61 µM against human urokinase (u-PA) and 0.531 µM at Plasmin. Further, the “Increase in ACT … 1 hour” value in data set [3] is recorded as 3 times. In [3], the “Increase in ACT … 4 hours” value is given as 2 times. For the same compound, in the data set with platelets, the “Thrombopenias observed 1 hour” value is recorded as 0%. For the same compound, the “TT Ctt2” value in [4] stood at 0.15 µM. The “Increase in TT … 1 hour” value in data set [5] was 22 times. In [5], the “Increase in TT … 4 hours” value stood at 19 times.
With `N=C(N)NCCC[C@H](NC(=O)C1(C(=O)NCCc2ccccc2)CCCC1)B(O)O.O=S(=O)(O)c1ccccc1` [Ex. 83, 1-(R)-(1-Phenethylaminocarbonylcyclopentanecarboxamido)-4-guanidinobutylboronic acid benzenesulfonate], the “ACT Ctt2” value in data set [1] worked out at 0.56 µM. For the same compound, the IC50 in [2] is 1.56 µM; at human thrombin, 0.0024 µM; on human urokinase (u-PA) it was 1.2 µM; against Plasmin, 6.88 µM. Besides, the “Increase in ACT … 1 hour” value in [3] was 7 times. Further, the “Increase in ACT … 4 hours” value in [3] is given as 4 times. Further, the “Thrombopenias observed 1 hour” value in the data set with platelets amounted to 0%. Further, the “TT Ctt2” value in data set [4] was 0.13 µM. Further, in data set [5], the “Increase in TT … 1 hour” value is over 30 times. Also, the “Increase in TT … 4 hours” value in data set [5] was found to be 18 times.
As to `N=C(N)NCCC[C@H](NC(=O)C1(C(=O)NCc2ccccc2)CCCC1)B(O)O.O=S(=O)(O)c1ccccc1` [Ex. 22, 1-(R)-(1-Benzylaminocarbonylcyclopentanecarboxamido)-4-guanidinobutylboronic acid benzenesulfonate], the “ACT Ctt2” value in data set [1] was 1.58 µM. Besides, the IC50 in data set [2] came to 1.35 µM; against human thrombin it was 0.0049 µM; on human urokinase (u-PA) it was 0.78 µM; on Plasmin, 8.63 µM. Also, the “Increase in ACT … 1 hour” value in data set [3] stood at 6 times. Further, the “Increase in ACT … 4 hours” value in [3] was determined as 2 times. Also, in the data set with platelets, the “Thrombopenias observed 1 hour” value came out at 0%. The “TT Ctt2” value in [4] is 0.30 µM. The “Increase in TT … 1 hour” value in data set [5] stood at 20 times. The “Increase in TT … 4 hours” value in data set [5] came out at 8 times.
With `Cl.N=C(N)NCCC[C@H](NC(=O)c1ccc(C23CCC(Cl)(CC2)CC3)cc1)B(O)O` [Ex. 6, 1-(R)-[4-(4-Chlorobicyclo[2.2.2]oct-1-yl)benzoylamino]-4-guanidinobutylboronic acid hydrochloride], in [1], the “ACT Ctt2” value stood at 3.13 µM. The IC50 in [2] turned out to be 0.29 µM; against human thrombin it was 0.0097 µM; against human urokinase (u-PA) it was 30 µM; against Plasmin it was 2.04 µM. The “Increase in ACT … 1 hour” value in data set [3] is listed as 4 times. Also, the “Increase in ACT … 4 hours” value in [3] turned out to be 2 times. For the same compound, the “Thrombopenias observed 1 hour” value in the data set with platelets came to 0%. Further, the “TT Ctt2” value in data set [4] worked out at 0.75 µM. In addition, the “Increase in TT … 1 hour” value in data set [5] is recorded as 30 times. In addition, the “Increase in TT … 4 hours” value in data set [5] is 10 times.
Consider `COc1cccc(CCNC(=O)C2(C(=O)N[C@@H](CCCNC(=N)N)B(O)O)CCCC2)c1.O=S(=O)(O)c1ccccc1` [Ex. 94, 1-(R)-[1-(3-Methoxyphenethylaminocarbonyl)cyclopentanecarboxamido]-4-guanidinobutylboronic acid benzenesulfonate], for which the “ACT Ctt2” value in [1] was 1.77 µM. Also, the IC50 is 1.41 µM in data set [2], 0.0039 µM against human thrombin, 1 µM against human urokinase (u-PA) and 4.06 µM against Plasmin. In addition, the “Increase in ACT … 1 hour” value in [3] turned out to be 9 times. In addition, the “Increase in ACT … 4 hours” value in [3] is 4 times. In addition, the “Thrombopenias observed 1 hour” value in the data set with platelets was 0%. The “TT Ctt2” value in [4] was found to be 0.32 µM. Besides, in data set [5], the “Increase in TT … 1 hour” value is 17 times. In addition, the “Increase in TT … 4 hours” value in data set [5] came to 21 times.

By IC50 is commonly meant the concentration at which inhibition is half-maximal.
